Laboratory results taken from patent publication US10875872B2, “Heteroaryl amide compounds as sting activators” (Incyte Corporation, priority 2018, dated 2020).

What follows are molecules tested on IRF3 (assay: IRF3 activation assay in THP-1 Dual cells (QUANTI-Blue reporter)). Details: Homo sapiens, THP1-Dual, 24 hours incubation, culture supernatant, absorbance at 620-655 nm.
Assay type: cell-based
Protocol: THP-1 Dual Cells (Invivogen) were maintained in RPMI1640 medium with addition of 10% FBS, 100 μg/mL zeocin, 10 μg/mL blasticidin. Cells were added in a 96-well flat bottom assay plate at 100,000 per well in 100 μL complete RPMI medium. Test compounds were prepared by serial dilution in complete RPMI medium and 100 μL test compounds were transferred to each corresponding well. The assay plate was incubated at 37° C., 5% CO2 for 24 hours. After the overnight incubation, 20 μL of the culture supernatants were collected, followed by addition of 180 μL of QUANTI-Blue (Invivogen) to assess IRF3 activity. The amount of IRF3 activation was assessed by reading the absorbance at 620-655 nm with a microplate reader 2 hours later. The culture supernatant from the untreated THP-1 cells was used as the negative control. To determine the NF-κB activation, another 20 μL of culture supernatant were transferred to a 96-well white plate, followed by addition of 50 μL of Quanti-Lucim assay solution (Invivogen). The amount of NF-κB activation induced by the test compounds were determined by the luminescence above the untreated control. EC50 determination was performed by fitting the curve of percent control activity versus the log of the compound concentration using the GraphPad Prism 6.0 software.

EC50	SMILES
500 to 1000 nM	CCn1nc(C)cc1C(=O)Nc1nc2cc(C(N)=O)cc(C)c2n1C/C=C/Cn1c(NC(=O)c2cc(C)nn2CC)nc2cc(C(N)=O)c3c(c21)OCCO3 [Example 1, (E)-1-(4-(5-carbamoyl-2-(1-ethyl-3-methyl-1H-pyrazole-5-carboxamido)-7-methyl-1H-benzo[d]imidazol-1-yl)but-2-en-1-yl)-2-(1-ethyl-3-methyl-1H-pyrazole-5-carboxamido)-7,8-dihydro-1H-[1,4]dioxino[2′,3′:3,4]benzo[1,2-d]imidazole-5-carboxamide]
< 100 nM	CCn1nc(C)cc1C(=O)Nc1nc2cc(C(N)=O)cc(C)c2n1C/C=C/Cn1c(NC(=O)c2cc(C)nn2CC)nc2cc(C(N)=O)c3ccoc3c21 [Example 2, (E)-1-(4-(5-carbamoyl-2-(1-ethyl-3-methyl-1H-pyrazole-5-carboxamido)-7-methyl-1H-benzo[d]imidazol-1-yl)but-2-en-1-yl)-2-(1-ethyl-3-methyl-1H-pyrazole-5-carboxamido)-1H-benzofuro[6,7-d]imidazole-5-carboxamide]
< 100 nM	CCn1nc(C)cc1C(=O)Nc1nc2cc(C(N)=O)cc(OCCCOC(=O)NCCC(=O)O)c2n1C/C=C/Cn1c(NC(=O)c2cc(C)nn2CC)nc2cc(C(N)=O)c3ccoc3c21 [Example 3, (E)-3-(((3-((5-carbamoyl-1-(4-(5-carbamoyl-2-(1-ethyl-3-methyl-1H-pyrazole-5-carboxamido)-1H-benzofuro[6,7-d]imidazol-1-yl)but-2-en-1-yl)-2-(1-ethyl-3-methyl-1H-pyrazole-5-carboxamido)-1H-benzo[d]imidazol-7-yl)oxy)propoxy)carbonyl)amino)propanoic acid]
